Assay results taken from patent publication US20090270442A1, “POLYMORPHS OF HYDROCHLORIDE SALT OF 5-(3-(ETHYLSULFONYL)PHENYL)-3,8-DIMETHYL-N-(1-METHYLPIPERIDIN-4-YL)-9H-PYRIDO[2,3-B]INDOLE-7-CARBOXAMIDE AND METHODS OF USE THEREFOR” (TAKEDA PHARMACEUTICAL COMPANY LIMITED, priority 2008, published 2009).

Assay: DI water slurry during the concurrent process control screen
Format: physicochemical
Conditions: several hours (2-24 hours)

SMILES: CCS(=O)(=O)c1cccc(-c2cc(C(=O)NC3CCN(C)CC3)c(C)c3[nH]c4ncc(C)cc4c23)c1 [Form B]
- form isolated after slurry in DI water: Form A was isolated
